Assay results reported in article PMC4324364 (MedChemComm, 2014).
Like-named read-outs stand apart in the source and are kept apart here.

Key:
[1] = system: L. major amastigotes; conditions: read-out: L. major Amast EC50, previously reported data; cited from earlier work
[2] = system: HepG2 cell line; conditions: compound marked as previously reported data; cited from earlier work
[3] = Metabolic stability; conditions: in vitro ADME assays
[4] = system: HepG2 cell line; test: HepG2 host cell toxicity; type: cell-based, human
[5] = system: T. brucei; test: T. brucei cell growth inhibition; type: cell-based, Trypanosoma brucei
[6] = system: T. brucei; conditions: cited from earlier work
[7] = system: T. cruzi; conditions: read-out: T. cruzi EC50; previously reported data, same assay; cited from earlier work
[8] = cited from earlier work
[9] = system: L. major promastigotes; conditions: read-out: L. major Promast EC50, previously reported data; cited from earlier work
[10] = system: P. falciparum (D6 strain); conditions: read-out: P. falciparum D6 EC50, previously reported data; cited from earlier work
[11] = system: T. brucei; conditions: read-out: T. brucei EC50; previously reported data, same assay; cited from earlier work
[12] = cited from earlier work; remark: listed apart in the source

In the case of `Fc1cccc(COc2ccc(Nc3ncnc4ccc(-c5ccccc5)cc34)cc2Cl)c1` [4b], the EC50 [1] is listed as over 15000 nM and the “HepG2 TC50 (concentration leading to 50% growth inhibition of host cells)” value [2] is listed as 4900 nM.
In the case of `Fc1cccc(COc2ccc(Nc3ncnc4ccc(-c5ccc(CN6CCOCC6)cc5)cc34)cc2Cl)c1` [4j], the “HepG2 TC50 (concentration leading to 50% growth inhibition of host cells)” value [2] is given as 12900 nM.
For `Fc1cccc(COc2ccc(Nc3ncnc4ccc(-c5ccc(N6CCOCC6)cc5)cc34)cc2Cl)c1` [4k], the EC50 [1] is given as over 15000 nM and the “HepG2 TC50 (concentration leading to 50% growth inhibition of host cells)” value [2] is given as 9600 nM.
In the case of `Cc1cc(-c2cc3ncnc(Nc4ccc(OCc5cccc(F)c5)c(Cl)c4)c3s2)cnc1N1CCOCC1` [11e], the metabolic stability [3] is reported as “modest”.
For `Fc1cccc(COc2ccc(Nc3ncnc4sc(-c5ccccc5)cc34)cc2Cl)c1` [18b], the “HepG2 TC50 (concentration leading to 50% growth inhibition of host cells)” value [4] was 10000 nM.
For `Fc1cccc(COc2ccc(Nc3ncnc4cc(C#C[C@@H]5CCCN5)sc34)cc2Cl)c1` [GW837016X], the “potency against T. brucei (in words)” value [5] was “potent”.
For `CS(=O)(=O)CCNCc1ccc(-c2ccc3ncnc(Nc4ccc(OCc5cccc(F)c5)c(Cl)c4)c3c2)o1` [compound 1, lapatinib, reference compound], the “cure of infected mice” value ([6]; murine model of HAT) is given as 25%.
For `Fc1cccc(COc2ccc(Nc3ncnc4ccc(-c5cccc(N6CCOCC6)c5)cc34)cc2Cl)c1` [compound 2], the “effect on parasitemia and life extension” value ([6]; murine T. brucei bloodstream infection) is given as “modest effect”, the EC50 [7] is given as 1800 ± 900 nM and the plasma protein binding [8] is given as over 99%. For the same compound, the metabolic stability [3] was “modest”, the EC50 [9] was 2970 nM and the EC50 [10] was 230 nM. The EC50 [11] was 42 ± 10 nM, the “central nervous system exposure” value [12] was “lack of central nervous system exposure” and the oral bioavailability ([12]; mice) was “orally bioavailable”.
